Test results: patent US7655679B2, “Derivatives of 2-aminothiazoles and 2-amino-oxazoles, processes for their preparation and their use as pharmaceutical compositions” (Sanofi-Aventis, priority 2005, dated 2010)
Counter-ions that a name gives are not always drawn. Like-named read-outs stand apart in the source and are kept apart here.

Legend:
human PPARdelta = target: T1, human PPARdelta (Homo sapiens, UniProt Q03181); assay: Cellular PPARdelta assay (luciferase reporter, stably transfected HEK cell line); assay type: cell-based; conditions: GR-GAL4-humanPPARdelta-LBD
T1 construct: amino acids S139-Y441; expressed in transfected cells; host or cells: HEK (human embryo kidney) cells, stably transfected; plasmid pcDNA3
T1 sequence (Q03181 139-441): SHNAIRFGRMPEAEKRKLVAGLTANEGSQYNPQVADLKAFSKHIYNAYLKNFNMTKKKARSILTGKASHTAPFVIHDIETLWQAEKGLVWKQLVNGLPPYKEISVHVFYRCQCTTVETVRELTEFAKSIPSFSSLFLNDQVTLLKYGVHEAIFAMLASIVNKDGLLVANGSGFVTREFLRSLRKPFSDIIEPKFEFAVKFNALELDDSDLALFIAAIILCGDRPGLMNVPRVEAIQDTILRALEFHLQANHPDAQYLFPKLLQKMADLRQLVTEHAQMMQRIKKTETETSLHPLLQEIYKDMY
Description: Determination of EC50 Values of PPAR Agonists in the Cellular PPARdelta Assay
(§1) The potency of substances which bind to human PPARdelta and activate it in an agonistic manner is analyzed using a stably transfected HEK cell line (HEK=human embryo kidney) which is referred to here as PPARdelta reporter cell line. In analogy to the assay described for PPARalpha, the PPARdelta reporter cell line also contains two genetic elements, a luciferase reporter element (pdeltaM-GAL4-Luc-Zeo) and a PPARdelta fusion protein (GR-GAL4-humanPPARdelta-LBD) which mediates expression of the luciferase reporter element depending on a PPARdelta ligand. The stably and constitutively expressed fusion protein GR-GAL4-humanPPARdelta-LBD binds in the cell nucleus of the PPARdelta reporter cell line via the GAL4 protein portion to the GAL4 DNA binding motifs 5′-upstream of the luciferase reporter element which is stably integrated in the genome of the cell line. There is only little expression of the luciferase reporter gene in the absence of a PPARdelta ligand if fatty acid-depleted fetal calf serum (cs-FCS) is used in the assay. PPARdelta ligands bind and activate the PPARdelta fusion protein and thereby stimulate expression of the luciferase reporter gene. The luciferase which is formed can be detected by means of chemiluminescence via an appropriate substrate.
The production of the stable PPARdelta reporter cell line is based on a stable HEK-cell clone which was stably transfected with a luciferase reporter element. This step was already described above in the section “construction of the PPARalpha reporter cell line”. In a second step, the PPARdelta fusion protein (GR-GAL4-humanPPARdelta-LBD was stably introduced into this cell clone. For this purpose, the cDNA coding for the N-terminal 76 amino acids of the glucocorticoid receptor (Accession # P04150) was linked to the cDNA section coding for amino acids 1-147 of the yeast transcription factor GAL4 (Accession # P04386). The cDNA of the ligand-binding domain of the human PPARdelta receptor (amino acids S139-Y441; Accession # L07592) was cloned in at the 3′-end of this GR-GAL4 construct. The fusion construct prepared in this way (GR-GAL4-humanPPARdelta-LBD) was recloned into the plasmid pcDNA3 (Invitrogen) in order to enable constitutive expression by the cytomegalovirus promoter. This plasmid was linearized with a restriction endonuclease and stably transfected into the previously described cell clone containing the luciferase reporter element. The resulting PPARdelta reporter cell line which contains a luciferase reporter element and constitutively expresses the PPARdelta fusion protein (GR-GAL4-human PPARdelta-LBD) was isolated by selection with zeocin (0.5 mg/ml) and G418 (0.5 mg/ml).
The activity of PPARdelta agonists is determined in a 3-day assay in exact analogy to the procedure already described for the PPARalpha reporter cell line except that the PPARdelta reporter cell line and a specific PPARdelta agonist was used as a standard to control test efficacy.

human PPARalpha = target: T2, human PPARalpha (Homo sapiens, UniProt Q07869); assay: Cellular PPARalpha assay (luciferase reporter, stably transfected HEK cell line); assay type: cell-based; conditions: GR-GAL4-humanPPARalpha-LBD
T2 construct: amino acids S167-Y468; expressed in transfected cells; host or cells: HEK (human embryo kidney) cells, stably transfected; plasmid pcDNA3
T2 sequence (Q07869 167-468): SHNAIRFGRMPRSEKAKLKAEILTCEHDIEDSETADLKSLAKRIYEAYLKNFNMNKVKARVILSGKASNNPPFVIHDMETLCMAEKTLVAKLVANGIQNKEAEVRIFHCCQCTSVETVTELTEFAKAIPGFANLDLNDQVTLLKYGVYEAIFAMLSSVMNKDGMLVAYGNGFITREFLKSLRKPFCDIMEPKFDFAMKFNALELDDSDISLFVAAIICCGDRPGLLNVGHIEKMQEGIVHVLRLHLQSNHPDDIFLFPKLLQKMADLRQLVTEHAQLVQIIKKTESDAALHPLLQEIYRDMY
Description: Determination of EC50 Values of PPAR Agonists in the Cellular PPARalpha Assay
as §1, with “PPARalpha” for “PPARdelta”, “It” for “In analogy to the assay described for PPARalpha, the PPARdelta reporter cell line also”, “(GR-GAL4-humanPPARalpha-LBD)” for “(GR-GAL4-humanPPARdelta-LBD)”, “GR-GAL4-humanPPARalpha-LBD” for “GR-GAL4-humanPPARdelta-LBD”, “weak” for “little”, “stimulate the” for “stimulate”
The PPARalpha reporter cell line was prepared in two stages. Firstly, the luciferase reporter element was constructed and stably transfected into HEK cells. For this purpose, five binding sites of the yeast transcription factor GAL4 (Accession # AF264724) were cloned in 5′-upstream of a 68 bp-long minimal MMTV promoter (Accession # V01175). The minimal MMTV promoter section contains a […] and a TATA element in order to enable efficient transcription by RNA polymerase II. The cloning and sequencing of the GAL4-MMTV construct took place in analogy to the description of Sambrook J. et. al. (Molecular cloning, Cold Spring Harbor Laboratory Press, 1989). Then the complete Photinus pyralis gene (Accession # M15077) was cloned in 3′-downstream of the GAL4-MMTV element. After sequencing, the luciferase reporter element consisting of five GAL4 binding sites, MMTV promoter and luciferase gene was recloned into a plasmid which confers zeocin resistance in order to obtain the plasmid pdeltaM-GAL4-Luc-Zeo. This vector was transfected into HEK cells in accordance with the statements in Ausubel, F. M. et al. (Current protocols in molecular biology, Vol. 1-3, John Wiley & Sons, Inc., 1995).
In a second step, the PPARalpha fusion protein (GR-GAL4-humanPPARalpha-LBD was introduced into the stable cell clone described. For this purpose, initially the cDNA coding for the N-terminal 76 amino acids of the glucocorticoid receptor (Accession # P04150) was linked to the cDNA section coding for amino acids 1-147 of the yeast transcription factor GAL4 (Accession # P04386). The cDNA of the ligand-binding domain of the human PPARalpha receptor (amino acids S167-Y468; Accession # S74349) was cloned in at the 3′-end of this GR-GAL4 construct. The fusion construct prepared in this way (GR-GAL4-humanPPARalpha-LBD) was recloned into the plasmid pcDNA3 (Invitrogen) in order to enable constitutive expression therein by the cytomegalovirus promoter. This plasmid was linearized with a restriction endonuclease and stably transfected into the previously described cell clone containing the luciferase reporter element. The finished PPARalpha reporter cell line which contains a luciferase reporter element and constitutively expresses the PPARalpha fusion protein (GR-GAL4-human PPARalpha-LBD) was isolated by selection with zeocin (0.5 mg/ml) and G418 (0.5 mg/ml).
The activity of PPARalpha agonists is determined in a 3-day assay which is described below: […]

[1] = diabetic animal model; cited from earlier work
[2] = obese, insulin resistant rhesus monkeys; cited from earlier work
[3] = two weeks clinical trials in healthy volunteers; cited from earlier work
[4] = rhesus monkeys; cited from earlier work
[5] = cynomoigus monkeys; cited from earlier work

| EC50 (human PPARdelta) [nM] | EC50 (human PPARalpha) [nM] | SMILES | other results |
| --- | --- | --- | --- |
| 20 | 60 | Cc1cc(CCN(CC2CCOCC2)c2nc3ccc(C(F)(F)F)cc3s2)ccc1-c1noc(=O)[nH]1 [Example 9, 3-(2-Methyl-4-{2-[(tetrahydro-pyran-4-ylmethyl)-(6-trifluoromethyl-benzothiazol-2-yl)-amino]-ethyl}-phenyl)-4H-[1,2,4]oxadiazol-5-one] |  |
| 4 | 70 | COCCCN(CCc1ccc(-c2noc(=O)[nH]2)c(C)c1)c1nc2ccc(C(F)(F)F)cc2s1 [Example 14, 3-(4-{2-[(3-Methoxy-propyl)-(6-trifluoromethyl-benzothiazol-2-yl)-amino]-ethyl}-2-methyl-phenyl)-4H-[1,2,4]oxadiazol-5-one] |  |
| 650 | 820 | COCCN(CCc1ccc(-c2noc(=O)[nH]2)cc1)c1nc(-c2ccc(Cl)cc2)cs1 [Example 23, 3-(4-{2-[[4-(4-Chloro-phenyl)-thiazol-2-yl]-(2-methoxy-ethyl)-amino]-ethyl}-phenyl)-4H-[1,2,4]oxadiazol-5-one] |  |
| 270 | 1350 | CCCCN(Cc1ccc(-c2noc(=O)[nH]2)c(F)c1)c1nc2ccc(C(F)(F)F)cc2s1 [Example 24, 3-(4-{[Butyl-(6-trifluoromethyl-benzothiazol-2-yl)-amino]-methyl}-2-fluoro-phenyl)-4H-[1,2,4]oxadiazol-5-one] |  |
| 60 | 1020 | COCCN(Cc1ccc(-c2noc(=O)[nH]2)c(F)c1)c1nc2ccc(C(F)(F)F)cc2s1 [Example 28, 3-(2-Fluoro-4-{[(2-methoxy-ethyl)-(6-trifluoromethyl-benzothiazol-2-yl)-amino]-methyl}-phenyl)-4H-[1,2,4]oxadiazol-5-one] |  |
| 1800 | 1100 | CN(C)CCN(Cc1ccc(-c2noc(=O)[nH]2)c(C(F)(F)F)c1)c1nc2ccc(C(F)(F)F)cc2s1 [Example 33, 3-(4-{[(2-Dimethylamino-ethyl)-(6-trifluoromethyl-benzothiazol-2-yl)-amino]-methyl}-2-trifluoromethyl-phenyl)-4H-[1,2,4]oxadiazol-5-one trifluoroacetate] |  |
| 200 | 360 | COCCCN(Cc1ccc(-c2noc(=O)[nH]2)c(F)c1)c1nc(-c2ccc(Cl)cc2)cs1 [Example 39, 3-(4-{[[4-(4-Chloro-phenyl)-thiazol-2-yl]-(3-methoxy-propyl)-amino]-methyl}-2-fluoro-phenyl) -4H-[1,2,4]oxadiazol-5-one] |  |
|  |  | CCCc1c(OCCCOc2ccc(OCC(=O)O)cc2)ccc(C(C)=O)c1O [Example L-165041] | plasma cholesterol [1]: raises |
|  |  | Cc1cc(SCc2sc(-c3ccc(C(F)(F)F)cc3)nc2C)ccc1OCC(=O)O [GW501516] | HDL-cholesterol [2]: raises; insulin levels [2]: decreases; plasma LDL-cholesterol [2]: decreases; plasma triglycerides [2]: decreases |
|  |  | CCCc1c(OCCCSc2nnc(SCC(=O)O)s2)ccc(C(C)=O)c1O [YM-16638] | plasma lipids [3]: acts in a similar manner; plasma lipids [4]: significantly lowers; plasma lipids [5]: significantly lowers |
